# How the values were obtained:
# Assay type in all cases: in vivo
# [1] = tested on: Ipomoea hederacea (IPOHE); assay: Pre-emergence herbicidal glasshouse test on Ipomoea hederacea; conditions: pre-emergence; 1000 g/h; evaluated after 13 days
# Method in brief: (§1)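 Read-out: percentage herbicidal damage 13 days after spraying, given on a five-point scale (5=80-100%, 4=60-79%, 3=40-59%, 2=20-39%, 1=0-19%). Pots of standard soil; application at 1000 g/h, one day post-sowing for pre-emergence, eight days for post-emergence.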
# Setaria faberi (SETFA) [2] = assay: Pre-emergence herbicidal glasshouse test on Setaria faberi; conditions: pre-emergence; 1000 g/h; evaluated after 13 days
# Method in brief: as §1
# Solanum nigrum (SOLNI) [3] = assay: Pre-emergence herbicidal glasshouse test on Solanum nigrum; conditions: pre-emergence; 1000 g/h; evaluated after 13 days
# Method in brief: as §1
# Solanum nigrum (SOLNI) [4] = assay: Post-emergence herbicidal glasshouse test on Solanum nigrum; conditions: post-emergence; 1000 g/h; evaluated after 13 days
# Method in brief: as §1
# [5] = tested on: Echinochloa crus-galli (ECHCG); assay: Pre-emergence herbicidal glasshouse test on Echinochloa crus-galli; conditions: pre-emergence; 1000 g/h; evaluated after 13 days
# Method in brief: as §1
# [6] = tested on: Ipomoea hederacea (IPOHE); assay: Post-emergence herbicidal glasshouse test on Ipomoea hederacea; conditions: post-emergence; 1000 g/h; evaluated after 13 days
# Method in brief: as §1
# [7] = tested on: Amaranthus retoflexus (AMARE); assay: Post-emergence herbicidal glasshouse test on Amaranthus retoflexus; conditions: post-emergence; 1000 g/h; evaluated after 13 days
# Method in brief: as §1
# [8] = tested on: Amaranthus retoflexus (AMARE); assay: Pre-emergence herbicidal glasshouse test on Amaranthus retoflexus; conditions: pre-emergence; 1000 g/h; evaluated after 13 days
# Method in brief: as §1
# Setaria faberi (SETFA) [9] = assay: Post-emergence herbicidal glasshouse test on Setaria faberi; conditions: post-emergence; 1000 g/h; evaluated after 13 days
# Method in brief: as §1
# [10] = tested on: Alopecurus myosuroides (ALOMY); assay: Post-emergence herbicidal glasshouse test on Alopecurus myosuroides; conditions: post-emergence; 1000 g/h; evaluated after 13 days
# Method in brief: as §1
# [11] = tested on: Alopecurus myosuroides (ALOMY); assay: Pre-emergence herbicidal glasshouse test on Alopecurus myosuroides; conditions: pre-emergence; 1000 g/h; evaluated after 13 days
# Method in brief: as §1
# [12] = tested on: Echinochloa crus-galli (ECHCG); assay: Post-emergence herbicidal glasshouse test on Echinochloa crus-galli; conditions: post-emergence; 1000 g/h; evaluated after 13 days
# Method in brief: as §1
Compound,PRE Application IPOHE herbicidal damage (five point scale) [1],PRE Application SETFA herbicidal damage (five point scale) (Setaria faberi (SETFA) [2]),PRE Application SOLNI herbicidal damage (five point scale) (Solanum nigrum (SOLNI) [3]),POST Application SOLNI herbicidal damage (five point scale) (Solanum nigrum (SOLNI) [4]),PRE Application ECHCG herbicidal damage (five point scale) [5],POST Application IPOHE herbicidal damage (five point scale) [6],POST Application AMARE herbicidal damage (five point scale) [7],PRE Application AMARE herbicidal damage (five point scale) [8],POST Application SETFA herbicidal damage (five point scale) (Setaria faberi (SETFA) [9]),POST Application ALOMY herbicidal damage (five point scale) [10],PRE Application ALOMY herbicidal damage (five point scale) [11],POST Application ECHCG herbicidal damage (five point scale) [12]
COc1ccc(Cl)c(-c2cnn(C)c(=O)c2O)c1 [Compound 1.090],1 (1=0-19% damage),1 (1=0-19% damage),1 (1=0-19% damage),2 (2=20-39% damage),1 (1=0-19% damage),1 (1=0-19% damage),1 (1=0-19% damage),1 (1=0-19% damage),1 (1=0-19% damage),1 (1=0-19% damage),1 (1=0-19% damage),1 (1=0-19% damage)
Cn1ncc(-c2ccc(Cl)c(Cl)c2Cl)c(O)c1=O [Compound 1.091],1 (1=0-19% damage),1 (1=0-19% damage),1 (1=0-19% damage),2 (2=20-39% damage),1 (1=0-19% damage),1 (1=0-19% damage),1 (1=0-19% damage),1 (1=0-19% damage),1 (1=0-19% damage),1 (1=0-19% damage),1 (1=0-19% damage),1 (1=0-19% damage)
Cn1ncc(-c2ccc(Cl)c(F)c2Cl)c(O)c1=O [Compound 1.092],1 (1=0-19% damage),1 (1=0-19% damage),1 (1=0-19% damage),2 (2=20-39% damage),1 (1=0-19% damage),2 (2=20-39% damage),1 (1=0-19% damage),1 (1=0-19% damage),1 (1=0-19% damage),1 (1=0-19% damage),1 (1=0-19% damage),1 (1=0-19% damage)
Cc1cc(F)ccc1-c1cnn(C)c(=O)c1O [Compound 1.093],1 (1=0-19% damage),1 (1=0-19% damage),1 (1=0-19% damage),2 (2=20-39% damage),1 (1=0-19% damage),1 (1=0-19% damage),1 (1=0-19% damage),1 (1=0-19% damage),1 (1=0-19% damage),1 (1=0-19% damage),1 (1=0-19% damage),1 (1=0-19% damage)
Cc1ccc(F)cc1-c1cnn(C)c(=O)c1O [Compound 1.094],1 (1=0-19% damage),1 (1=0-19% damage),1 (1=0-19% damage),2 (2=20-39% damage),1 (1=0-19% damage),1 (1=0-19% damage),1 (1=0-19% damage),1 (1=0-19% damage),1 (1=0-19% damage),1 (1=0-19% damage),1 (1=0-19% damage),1 (1=0-19% damage)
Cn1ncc(-c2cccc3ccccc23)c(O)c1=O [Compound 1.095],1 (1=0-19% damage),1 (1=0-19% damage),1 (1=0-19% damage),1 (1=0-19% damage),1 (1=0-19% damage),1 (1=0-19% damage),1 (1=0-19% damage),1 (1=0-19% damage),1 (1=0-19% damage),1 (1=0-19% damage),1 (1=0-19% damage),1 (1=0-19% damage)
Cn1ncc(-c2cc(C(F)(F)F)ccc2F)c(O)c1=O [Compound 1.096],1 (1=0-19% damage),1 (1=0-19% damage),1 (1=0-19% damage),1 (1=0-19% damage),1 (1=0-19% damage),2 (2=20-39% damage),1 (1=0-19% damage),1 (1=0-19% damage),1 (1=0-19% damage),1 (1=0-19% damage),1 (1=0-19% damage),1 (1=0-19% damage)
Cc1ccc(-c2cnn(C)c(=O)c2O)c(Cl)c1 [Compound 1.098],1 (1=0-19% damage),1 (1=0-19% damage),1 (1=0-19% damage),3 (3=40-59% damage),1 (1=0-19% damage),2 (2=20-39% damage),2 (2=20-39% damage),1 (1=0-19% damage),1 (1=0-19% damage),1 (1=0-19% damage),1 (1=0-19% damage),1 (1=0-19% damage)
Cn1ncc(-c2cc(Cl)ccc2Cl)c(O)c1=O [Compound 1.099],1 (1=0-19% damage),1 (1=0-19% damage),1 (1=0-19% damage),2 (2=20-39% damage),1 (1=0-19% damage),2 (2=20-39% damage),3 (3=40-59% damage),1 (1=0-19% damage),1 (1=0-19% damage),1 (1=0-19% damage),1 (1=0-19% damage),1 (1=0-19% damage)

# Reference: US9693556B2, “Herbicidal pyridazinone derivatives” (SYNGENTA LIMITED, priority 2011, dated 2017)
